Laboratory results from PubChem BioAssay (NCI).
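Where inhibition never reached the appropriate level, the endpoint shown equals the highest concentration tested. Otherwise, values were interpolated linearly from a five-concentration, 48-hour dose response in 96-well plates. At the TGI there is no net growth.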

What was measured:
Experiment in all cases: growth of human tumour cells (NCI), 48 h
UACC-62 melanoma = tested on: UACC-62 melanoma
SF-539 CNS = tested on: SF-539 CNS
NCI-H460 lung = tested on: NCI-H460 lung
A498 renal = tested on: A498 renal
PC-3 prostate = tested on: PC-3 prostate
SN12C renal = tested on: SN12C renal
MDA-MB-231 breast = tested on: MDA-MB-231 breast
M14 melanoma = tested on: M14 melanoma
SW-620 colon = tested on: SW-620 colon
HOP-62 NSCLC = tested on: HOP-62 NSCLC
MDA-MB-435 = tested on: MDA-MB-435
MALME-3M melanoma = tested on: MALME-3M melanoma
MOLT-4 leukemia = tested on: MOLT-4 leukemia
SK-OV-3 ovarian = tested on: SK-OV-3 ovarian
NCI-H226 lung = tested on: NCI-H226 lung
NCI-H23 lung = tested on: NCI-H23 lung
RXF 393 renal = tested on: RXF 393 renal
COLO 205 colon = tested on: COLO 205 colon
IGROV1 ovarian = tested on: IGROV1 ovarian
CCRF-CEM leukemia = tested on: CCRF-CEM leukemia
HCT-15 colon = tested on: HCT-15 colon
NCI/ADR-RES ovarian = tested on: NCI/ADR-RES ovarian
A549 NSCLC = tested on: A549 NSCLC
HT29 colon = tested on: HT29 colon
SF-295 CNS = tested on: SF-295 CNS
RPMI-8226 leukemia = tested on: RPMI-8226 leukemia
U251 CNS = tested on: U251 CNS
OVCAR-4 ovarian = tested on: OVCAR-4 ovarian
NCI-H522 lung = tested on: NCI-H522 lung
SF-268 CNS = tested on: SF-268 CNS
SNB-19 CNS = tested on: SNB-19 CNS
EKVX NSCLC = tested on: EKVX NSCLC
SK-MEL-28 melanoma = tested on: SK-MEL-28 melanoma
HCT-116 colon = tested on: HCT-116 colon
UO-31 renal = tested on: UO-31 renal
MDA-N = tested on: MDA-N
ACHN renal = tested on: ACHN renal
SK-MEL-5 melanoma = tested on: SK-MEL-5 melanoma
DU-145 prostate = tested on: DU-145 prostate
LOX IMVI melanoma = tested on: LOX IMVI melanoma
UACC-257 melanoma = tested on: UACC-257 melanoma
T-47D breast = tested on: T-47D breast
TK-10 renal = tested on: TK-10 renal
OVCAR-8 ovarian = tested on: OVCAR-8 ovarian
SNB-75 CNS = tested on: SNB-75 CNS
OVCAR-3 ovarian = tested on: OVCAR-3 ovarian
SR leukemia = tested on: SR leukemia
CAKI-1 renal = tested on: CAKI-1 renal
786-0 renal = tested on: 786-0 renal
HOP-92 NSCLC = tested on: HOP-92 NSCLC
KM12 colon = tested on: KM12 colon
OVCAR-5 ovarian = tested on: OVCAR-5 ovarian
BT-549 breast = tested on: BT-549 breast
MCF7 breast = tested on: MCF7 breast
HCC-2998 colon = tested on: HCC-2998 colon
K-562 leukemia = tested on: K-562 leukemia

Measured: TGI

CC(C)Sc1nncc(/C(N)=N/O)n1
> 100 µM: UACC-62 melanoma | SF-539 CNS | NCI-H460 lung | A498 renal | PC-3 prostate | SN12C renal | MDA-MB-231 breast | M14 melanoma | SW-620 colon | HOP-62 NSCLC | MDA-MB-435 | MALME-3M melanoma | MOLT-4 leukemia | SK-OV-3 ovarian | NCI-H226 lung | NCI-H23 lung | RXF 393 renal | COLO 205 colon | IGROV1 ovarian | CCRF-CEM leukemia | HCT-15 colon | NCI/ADR-RES ovarian | A549 NSCLC | HT29 colon | SF-295 CNS | RPMI-8226 leukemia | U251 CNS | OVCAR-4 ovarian | NCI-H522 lung | SF-268 CNS | SNB-19 CNS | EKVX NSCLC | SK-MEL-28 melanoma | HCT-116 colon | UO-31 renal | MDA-N | ACHN renal | SK-MEL-5 melanoma | DU-145 prostate | LOX IMVI melanoma | UACC-257 melanoma | T-47D breast | TK-10 renal | OVCAR-8 ovarian | SNB-75 CNS | OVCAR-3 ovarian | SR leukemia | CAKI-1 renal | 786-0 renal | HOP-92 NSCLC | KM12 colon | OVCAR-5 ovarian | BT-549 breast | MCF7 breast | HCC-2998 colon | K-562 leukemia
